Biological target: T1, androgen receptor (Rattus norvegicus, UniProt P15207)
T1 sequence (P15207 1-902): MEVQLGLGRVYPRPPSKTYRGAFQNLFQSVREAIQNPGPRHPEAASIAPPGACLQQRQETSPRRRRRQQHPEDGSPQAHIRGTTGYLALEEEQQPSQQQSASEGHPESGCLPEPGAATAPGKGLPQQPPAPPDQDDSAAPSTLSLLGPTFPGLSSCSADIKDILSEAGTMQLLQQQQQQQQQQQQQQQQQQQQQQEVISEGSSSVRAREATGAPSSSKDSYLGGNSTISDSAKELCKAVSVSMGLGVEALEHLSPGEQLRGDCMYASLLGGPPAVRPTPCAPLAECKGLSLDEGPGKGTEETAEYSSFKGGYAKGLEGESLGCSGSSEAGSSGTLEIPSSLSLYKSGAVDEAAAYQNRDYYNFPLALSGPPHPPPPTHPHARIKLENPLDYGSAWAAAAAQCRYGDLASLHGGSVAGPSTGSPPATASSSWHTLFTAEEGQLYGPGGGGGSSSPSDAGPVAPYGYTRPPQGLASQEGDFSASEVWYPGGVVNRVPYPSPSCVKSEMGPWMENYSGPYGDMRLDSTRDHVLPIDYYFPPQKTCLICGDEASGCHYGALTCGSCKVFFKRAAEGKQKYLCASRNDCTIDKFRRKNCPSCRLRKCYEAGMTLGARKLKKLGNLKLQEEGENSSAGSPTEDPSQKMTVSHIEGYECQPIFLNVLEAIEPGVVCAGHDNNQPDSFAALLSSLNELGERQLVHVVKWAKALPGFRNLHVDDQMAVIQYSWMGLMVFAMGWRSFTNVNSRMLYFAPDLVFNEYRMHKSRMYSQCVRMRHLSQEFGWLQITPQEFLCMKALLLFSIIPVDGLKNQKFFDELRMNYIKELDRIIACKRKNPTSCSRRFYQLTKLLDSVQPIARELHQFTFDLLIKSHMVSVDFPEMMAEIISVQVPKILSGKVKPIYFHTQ
Experiment: Binding affinity to cytoplasmic androgen (rat prostate) receptors, dextran-coated charcoal adsorption technique
Method: Binding affinity to cytoplasmic androgen (rat prostate) receptors was determined by standard dextran-coated charcoal adsorption technique (Raynaud J. P. et al. J. Steroid. Biochem. 6, 615-622, 1975).
Prostatic tissue, obtained from both adrenalectomized and orchidectomized Sprague-Dawley rats, was homogenized (1:10 weight:vol ratio) in 10 mM Tris-HCl PH 7.4, containing 1.5 nM EDTA and 1 mM dithiothreitol, in motor driven tissue grinders. The homogenate was centrifuged at 105,000×g for 1 h at 2° C. Aliquots of cytosol (0.2 ml) were incubated for 2 h at 0° C. with various concentrations of the test compounds, in duplicate, and a fixed amount of [^3 H]-5α-dihydrotestosterone (DHT, final concentration 1 nM in 0.4 ml of incubation volume). Then, free radioactivity was adsorbed on 0.2 ml of dextran-coated charcoal suspension and after centrifugation at 1,500×g for 10 min, the bound radioactivity in the supernatant was determined by liquid scintillation in RIaluma.

C=C1C[C@H]2[C@@H]3CC[C@H](O)[C@@]3(C)CC[C@@H]2[C@@]2(C)C=CC(=O)C=C12 [6-methylenandrosta-1,4-diene-17β-ol-3-one]
affinity to the androgen receptor (in words): very high affinity | times more potent than the correspondent 17-cheto-derivative (androgen receptor affinity) (versus 6-methylenandrosta-1,4-diene-3,17-dione): 76 times

Source: patent US4873233A, “17-Substituted androsta-1,4-dien-3-one derivatives” (Farmitalia Carlo Erba S.p.a., priority 1987, dated 1989)
